Experimental data published in publication PMC11100015, “Bioluminescence Imaging of Potassium Ion Using a Sensory Luciferin and an Engineered Luciferase” (Journal of the American Chemical Society, 2024).

Target: T1, BREP (Oplophorus gracilirostris, UniProt Q9GV45, A31E/Q38R/Q45L/D46S/L54V/A60N/K70R/V71I/A81I/F95D/L99Q/M102K/D112N/I117V/P142E/Q151K/Y165I/C191H/N193R)
T1 construct: fusion of mScarlet-I and teLuc (NanoLuc variant) via three-residue linker; recombinant, pBAD/His B, purified; with mScarlet-I red fluorescent protein (engineered RFP, RET acceptor)
T1 sequence (Q9GV45 28-196 with the stated changes): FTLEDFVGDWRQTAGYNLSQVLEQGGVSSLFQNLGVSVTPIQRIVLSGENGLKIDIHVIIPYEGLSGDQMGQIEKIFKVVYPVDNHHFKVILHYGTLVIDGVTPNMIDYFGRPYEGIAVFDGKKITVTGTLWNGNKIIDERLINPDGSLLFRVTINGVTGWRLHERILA
Assay: bioluminescence emission spectra
Type: biochemical
Details: MOPS pH 7.4; 25 uM potassiorin, 100 nM enzyme

With O=c1c(Cc2ccc(OCCn3cc(-c4ccc(N5CCOCCOCCOCCOCCOCC5)cc4)nn3)cc2)nc2c(-c3ccccc3)[nH]c(-c3ccccc3)cn1-2 [compound 13, potassiorin] the bioluminescence emission spectra was “We measured the emission spectra of BREP and potassiorin in the absence and presence”.
